Experimental data reported in patent publication US20200016200A1, “MODULATING CYTOTOXIC CELL LYTIC GRANULE POSITIONING TO PROMOTE DIFFUSE KILLING IN CELLULAR THERAPIES” (Baylor College of Medicine, priority 2016, published 2020).
“Also recorded” adds a separate entry of the source.

Columns and labels:
[1] = system: eNK cells; experiment: Flow cytometry-based degranulation assay (CD107a); assay type: cell-based, human; conditions: eNK with K562 targets, 2 hours, vs DMSO
Protocol: (§1) FIGS. 13A-13E. The effect of ciliobrevin D on degranulation and the increase of bystander killing by NK cells. Flow cytometry-based degranulation assay of NK cells treated with ciliobrevin D or DMSO as vehicle control. 721.221 cells were used as targets for YTS cells and K562 cells were used as targets for NK92 and eNK cells. DMSO or ciliobrevin D-treated NK cells were mixed with their respective target cells and co-cultured at 37° C. for 2 hours in the presence of anti-CD107a antibody, GolgiStop (BD) and analyzed using flow cytometry. Numbers in the representative flow cytometry plots indicate the percentage of CD107a positive eNK (13A), YTS (13B), or NK92 (13C) cells. Standard 4-hour 51Cr cytotoxicity assay of NK cells treated with ciliobrevin D (100 μM) or DMSO control. NK resistant Raji cells were used as innocent bystander cells. […] Bystander killing of Raji cells by YTS (13D, red) and NK92 (13E, red) cells both increased with ciliobrevin D treatment. Representative experiments from three independent experiments for YTS and NK92 cells were shown.
(§2) YTS-CD16, NK92-CD16 and eNK cells were labeled with CellTrace CFSE for 10 min at room temperature. S2 and S2-IC1 cells were pre-incubated with anti-S2 polyclonal IgG antibody at a final dilution of 1:1000 for 30 min at room temperature and washed three times. S2, S2-IgG, S2-IC1 and S2-IC1-IgG cells were then labeled with cell proliferation dye eFluor 670 for 5 min at room temperature. […] and 2×10^5 target cells were mixed in 200 μl complete R10 and incubated for 2 hours at 37° C. in the presence of anti-CD107a antibody and GolgiStop (BD), fixed with 1% paraformaldehyde in PBS and analyzed as described in flow-based conjugation assay.
(§3) Where applicable, YTS, NK92 and eNK cells were pretreated with […] ciliobrevin D (Millipore) for 30 min then washed. DMSO was used as the vehicle control for all inhibitor experiments. The inhibitor was also added into the co-culture with target cells.

[2] = system: YTS cells; experiment: Flow cytometry-based degranulation assay (CD107a); assay type: cell-based, human; conditions: YTS with 721.221 targets, 2 hours, vs DMSO
Protocol: as §1, §2, §3

[3] = system: NK92 cells; experiment: Flow cytometry-based degranulation assay (CD107a); assay type: cell-based, human; conditions: NK92 with K562 targets, 2 hours, vs DMSO
Protocol: as §1, §2, §3

[4] = system: GD2 CAR-bearing T cells; experiment: Live cell confocal microscopy of lytic granule positioning (LysoTracker Red); assay type: cell-based; conditions: ciliobrevin D 50 μM vs DMSO, straight out of culture or 0.5 h post cytokine (IL-7, IL-15) re-addition
Protocol: FIG. 20. […] Live cell confocal microscopy of GD2 CAR-bearing T cells treated with DMSO or ciliobrevin D (50 μM). Lytic granule positioning was tracked using LysoTracker Red. […] The culture medium for GD2 CAR T cells contains IL-7 and IL-15. […] Quantitative analyses of lytic granule distance from the MTOC are shown as a feature of the degree of granule convergence in GD2 CAR-bearing T cells.
Specifically, the inventors have shown convergence in CD19 CAR T cells, CD19 CAR NK cells, PSCA CAR T cells, GD2 CAR NKT cells, HER2 CART cells, and glypican CAR T cells (FIG. 15A). Using a measurement of mean granule distance from the MTOC, CAR cells have varying degrees of converged lytic granules (FIG. 15B).

[5] = system: YTS cells; experiment: Standard 4-hour 51Cr cytotoxicity assay; assay type: cell-based, human; conditions: ciliobrevin D 100 μM vs DMSO
Protocol: as §1
(§4) Because directed degranulation with converged granules promoted killing efficiency, ciliobrevin D was used to physically prevent convergence in a cell that had received a convergence signal. It was considered that this would allow us to abrogate the killing efficiency benefit imparted by lytic granule convergence. In order to measure killing of both the target and bystander cells in a single experiment, flow cytometry-based cytotoxicity assays were performed, wherein each cell line was labeled with a unique fluorescent dye in the presence of media containing SYTOX Blue viability indicator dye. […] The viability of YTS ([…]), NK92 (FIG. 14E, 14H) and eNK (FIG. 14F, 14I) was not affected by DMSO or ciliobrevin D treatments. […] To ask if it promoted more collateral damage by NK cells 51Cr-labeled Raji cells were added (to serve as innocent bystanders) along with unlabeled 721.221 or K562 target cells. […] YTS or NK92 cells co-cultured with 51Cr-labeled Raji cells in the absence of 721.221 or K562 were unable to kill Raji cells (FIG. 14J). […] Convergence therefore serves to protect innocent bystander cells in complex cellular environments.
(§5) Standard 51Cr-release assays were performed as previously described (Orange et al., 2011). Where indicated, 51Cr51-labeled target or “bystander” cells were mixed with unlabeled target or “bystander” cells to test the indirect lysis of targets. For ADCC, Raji cells were incubated with 20 μg/ml of rituximab in complete R10 medium for 20 min at 37° C., and washed three times before adding to eNK cells.
(§6) Where applicable, YTS, NK92 and eNK cells were pretreated with […] ciliobrevin D (Millipore) for 30 min then washed. […]

[6] = system: NK92 cells; experiment: Standard 4-hour 51Cr cytotoxicity assay; assay type: cell-based, human; conditions: ciliobrevin D 100 μM vs DMSO
Protocol: as §1, §4, §5, §6

N#CC(C(=O)c1ccc(Cl)cc1Cl)=C1NC(=O)c2ccc(Cl)cc2N1 [ciliobrevin D, 2-(7-chloro-4-oxo-3,4-dihydroquinazolin-2(1H)-ylidene)-3-(2,4-dichlorophenyl)-3-oxopropanenitrile]
proportion of cells that degranulated (CD107a positive) [1]: increased | proportion of cells that degranulated (CD107a positive) [2]: decreased | proportion of cells that degranulated (CD107a positive) [3]: decreased | stimulation-induced lytic granule convergence [4]: blocks stimulation-induced convergence | stimulation-induced lytic granule convergence ([4]; listed as Ciliobrevin D): dispersed lytic granules | lysis of susceptible target cells (51Cr release) ([5]; YTS against 721.221): did not substantively alter total killing; also recorded: slightly increased | non-specific lysis (bystander killing) of 51Cr-labeled Raji cells ([5]; YTS with unlabeled 721.221 targets): more non-specific lysis; also recorded: increased | lysis of susceptible target cells (51Cr release) ([6]; NK92 against K562): did not substantively alter total killing; also recorded: not affected | non-specific lysis (bystander killing) of 51Cr-labeled Raji cells ([6]; NK92 with unlabeled K562 targets): more non-specific lysis; also recorded: increased
